One test concerns Candida albicans. The experiment in a line: Antifungal activity against Candida albicans ATCC 10231. In kind it is functional.
For a further test, the system named is Nakaseomyces glabratus. The experiment in a line: Antifungal activity against Candida glabrata. In kind it is functional.

≈ marks a conversion by molar mass, not a printed value.

For the compound `CCCCCCCCC[C@@H](O)[C@H](C)N`, the MIC (as a rule, the smallest concentration in the dilution series that meets the test's criterion for growth inhibition) with Candida albicans was found to be 0.7 µg/mL (≈ 3.48 µM); against Nakaseomyces glabratus, 30 µg/mL (≈ 149 µM).
In turn, `CC(=O)N1CCN(c2ccc(OCC3COC(Cn4ccnc4)(c4ccc(Cl)cc4Cl)O3)cc2)CC1` (centres undefined) [KETOCONAZOLE] showed an MIC in the test on Candida albicans of 0.01 µg/mL (≈ 0.0188 µM).
As to NYSTATIN, the MIC in the test with Candida albicans was 1 µg/mL.

The record behind these values is ChEMBL document CHEMBL1148949, “(2S,3R)-2-aminododecan-3-ol, a new antifungal agent from the ascidian Clavelina oblonga” (2004).
